Patent publication US20260248927A1, “TARGETED PROTEIN DEGRADATION USING BIFUNCTIONAL COMPOUNDS THAT BIND UBIQUITIN LIGASE AND TARGET MCL-1 PROTEIN” (Captor Therapeutics S.A., priority 2022, published 2026)

Legend:
[1] = target: [MCL-1]-[compound of formula (I)]—[CRBN/DDB1] (Homo sapiens, UniProt Q07820+Q96SW2); test: HTRF ternary complex formation assay; format: binding; conditions: hMcl-1 and CRBN, 180 min at 25° C.; read-out: HTRF ternary complex Average pEC50 by molecule (converted)
Protocol: The effect of the bifunctional compounds of the invention on the formation of a ternary complex composed of [MCL-1]-[compound of formula (I)]—[CRBN/DDB1] was investigated with HTRF ternary complex assay.
Mix of protein solution was prepared: • 48 nM hMcl-1 and 105.6 nM CRBN were prepared in PPI Europium detection buffer with 2 mM DTT. • Acceptor and donor stock solutions were diluted 100 times in PPI Europium detection buffer. Equal volumes of both reagents were mixed. Finally giving 3 nM of Streptavidin-Eu cryptate ([…]) and 6.67 nM of Anti-6×his-d2 ([…]).
5 μl of protein mix was dispensed to all wells. The tested compounds in dose-response were dispensed onto a white 384-well low volume plate (Greiner, 784075). DMSO was backfilled to all wells, resulting in a final DMSO content of 0.5%. Wells containing only DMSO served as a background. Next, 5 μl of solution with donor and acceptor was added to the wells.
The plate was sealed with transparent film and shaken using a VibroTurbulator for 60 sec at level 3. The plate was then spun down shortly (10 s, 1000 rcf) and incubated at 25° C. for 180 min.
The read-out was performed with plate reader (Pherastar, BMG Labtech) in time resolved fluorescence mode. Filterset: TR 337 665 620.
The results were analyzed as follows: • 1) an average of fluorescence for background signal was calculated and used as a negative control; • 2) raw fluorescence values for tested compounds were normalized against negative controls; • 3) bell shape curve was fitted to a gaussian distribution using a non-linear least squares Gauss-Newton algorithm; • 4) EC50 and pEC50 values were determined.

[2] = system: MV4-11 cells; test: Cell viability assay (CellTiter-Glo), MV4-11; format: cell-based; conditions: Homo sapiens, MV4-11, 24 hours, 1% FBS, read-out: Average pCC50 by molecule MV4-11 (converted)
Text: (§1) The effect of various compounds of the invention on the viability of MV4-11 and ARH-77 cell lines was investigated, using the CTG protocol described below.
(§2) MV4-11 cell lines are derived from acute myeloid leukaemia and it is described in the literature as a MCL-1 dependent cell line, as opposed to lymphoblast-like ARH-77 cell line, which is described as independent of MCL-1 (Tron A E et al. Nat Commun. 2018; 9: 5341; Caenepeel S et al. Cancer Discov. 2018 December; 8(12): 1582-1597).
(§3) Cells (MV4-11 or ARH-77) were seeded on […] in a growth medium with 1% FBS. Next, compound stocks were pre-diluted in DMSO and added directly to the cell culture media (final DMSO concentration: 0.5%). Compound concentrations used in this assay: 1/3 dilutions starting at 30 μM (9 to 12 points). After 24 hours of incubation, cell viability was evaluated using CellTiter-Glo Luminescent Cell Viability Assay (Promega, cat #G7572). The luminescence signal was measured using a CLARIOstar Plus Multi-Mode Microplate Reader (574-590 nm).
(§4) Results were normalized to DMSO control. Collected data were analyzed using GraphPad Prism to calculate pCC50 values.

[3] = Cell viability assay (CellTiter-Glo), ARH-77; format: cell-based; conditions: human, ARH-77 cells (lymphoblast-like, MCL-1 independent), ARH-77, 24 hours, 1% FBS, read-out: Average pCC50 by molecule ARH-77 (converted)
Text: as §1, §2, §3, §4

[MCL-1]-[compound of formula (I)]—[CRBN/DDB1], sequence (Q07820 whole entry): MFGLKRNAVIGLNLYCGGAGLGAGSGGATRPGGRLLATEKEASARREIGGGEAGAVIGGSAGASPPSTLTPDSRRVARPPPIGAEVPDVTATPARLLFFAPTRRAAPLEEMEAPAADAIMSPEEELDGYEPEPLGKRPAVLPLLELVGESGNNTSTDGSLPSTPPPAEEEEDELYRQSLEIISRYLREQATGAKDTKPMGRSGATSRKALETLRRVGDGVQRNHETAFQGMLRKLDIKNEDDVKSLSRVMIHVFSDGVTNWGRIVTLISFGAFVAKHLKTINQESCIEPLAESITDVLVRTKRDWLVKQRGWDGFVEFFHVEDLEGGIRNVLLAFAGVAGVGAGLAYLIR
[MCL-1]-[compound of formula (I)]—[CRBN/DDB1], sequence (Q96SW2 whole entry): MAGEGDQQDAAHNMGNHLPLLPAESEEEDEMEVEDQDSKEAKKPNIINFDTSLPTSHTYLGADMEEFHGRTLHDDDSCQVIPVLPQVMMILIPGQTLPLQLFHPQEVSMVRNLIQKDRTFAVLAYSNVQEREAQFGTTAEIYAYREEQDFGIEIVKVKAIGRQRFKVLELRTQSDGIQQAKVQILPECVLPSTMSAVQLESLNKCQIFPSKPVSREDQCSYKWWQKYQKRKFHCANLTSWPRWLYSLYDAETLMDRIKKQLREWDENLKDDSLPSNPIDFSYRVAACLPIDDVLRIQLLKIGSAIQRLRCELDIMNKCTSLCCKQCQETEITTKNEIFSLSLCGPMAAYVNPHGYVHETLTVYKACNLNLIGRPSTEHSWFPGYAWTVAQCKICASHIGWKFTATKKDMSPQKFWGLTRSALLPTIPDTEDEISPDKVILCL
[MCL-1]-[compound of formula (I)]—[CRBN/DDB1], sequence (Q16531 whole entry partner): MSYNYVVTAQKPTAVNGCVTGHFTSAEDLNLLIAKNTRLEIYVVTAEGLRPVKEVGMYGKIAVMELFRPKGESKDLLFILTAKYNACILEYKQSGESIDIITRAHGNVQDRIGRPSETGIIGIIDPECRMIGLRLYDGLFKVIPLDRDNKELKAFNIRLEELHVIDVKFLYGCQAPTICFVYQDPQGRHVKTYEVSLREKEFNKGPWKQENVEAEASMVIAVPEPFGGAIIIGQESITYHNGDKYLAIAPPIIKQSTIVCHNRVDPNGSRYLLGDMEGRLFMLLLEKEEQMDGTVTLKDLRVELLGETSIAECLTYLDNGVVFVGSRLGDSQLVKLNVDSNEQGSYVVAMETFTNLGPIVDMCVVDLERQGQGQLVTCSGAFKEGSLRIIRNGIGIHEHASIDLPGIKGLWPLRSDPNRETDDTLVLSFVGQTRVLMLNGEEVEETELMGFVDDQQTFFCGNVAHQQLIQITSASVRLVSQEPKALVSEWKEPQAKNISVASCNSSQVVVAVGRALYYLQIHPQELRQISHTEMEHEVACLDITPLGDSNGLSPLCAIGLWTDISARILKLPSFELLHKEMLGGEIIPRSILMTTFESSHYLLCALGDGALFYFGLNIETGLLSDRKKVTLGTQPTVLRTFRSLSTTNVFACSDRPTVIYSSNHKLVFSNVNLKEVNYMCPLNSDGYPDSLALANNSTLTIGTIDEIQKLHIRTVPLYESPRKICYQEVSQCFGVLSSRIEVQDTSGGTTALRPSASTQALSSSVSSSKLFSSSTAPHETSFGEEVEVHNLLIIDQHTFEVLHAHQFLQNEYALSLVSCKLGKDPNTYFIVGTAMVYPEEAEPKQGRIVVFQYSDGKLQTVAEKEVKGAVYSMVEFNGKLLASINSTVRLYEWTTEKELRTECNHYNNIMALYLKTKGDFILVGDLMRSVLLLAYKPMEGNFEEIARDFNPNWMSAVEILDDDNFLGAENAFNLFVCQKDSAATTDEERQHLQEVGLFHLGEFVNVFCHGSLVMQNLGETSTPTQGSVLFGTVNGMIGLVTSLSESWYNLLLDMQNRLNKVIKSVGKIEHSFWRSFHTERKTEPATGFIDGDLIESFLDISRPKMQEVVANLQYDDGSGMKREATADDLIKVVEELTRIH

Row | EC50 [1] | Structure (SMILES) | CC50 [2] | CC50 at 24 h [3]
1 | < 31.6 nM | Cc1nn(C)c(C)c1-c1c(Cl)ccc2c(CCCOc3cccc4cc(F)ccc34)c(C(=O)O)n(CCN3CCN(C(=O)c4cc5cc(C6CCC(=O)NC6=O)ccc5n4C)CC3)c12 (stereo not shown) [Compound 148, 6-Chloro-1-(2-(4-(5-(2,6-dioxopiperidin-3-yl)-1-methyl-1H-indole-2-carbonyl)piperazin-1-yl)ethyl)-3-(3-((6-fluoronaphthalen-1-yl)oxy)propyl)-7-(1,3,5-trimethyl-1H-pyrazol-4-yl)-1H-indole-2-carboxylic acid] | < 316 nM | > 3160 nM
2 | < 100 nM | Cc1nc2c(OCC(=O)N3CCN(CCn4c(C(=O)O)c(CCCOc5cccc6cc(F)ccc56)c5ccc(Cl)c(-c6c(C)nn(C)c6C)c54)CC3)cccc2cc1C1CCC(=O)NC1=O (stereo not shown) [Compound 4, 6-Chloro-1-{2-[4-(2-{[3-(2,6-dioxopiperidin-3-yl)-2-methylquinolin-8-yl]oxy}acetyl)piperazin-1-yl]ethyl}-3-{3-[(6-fluoronaphthalen-1-yl)oxy]propyl}-7-(1,3,5-trimethyl-1H-pyrazol-4-yl)-1H-indole-2-carboxylic acid] | < 316 nM | > 10000 nM
3 | < 316 nM | Cc1nn(C)c(C)c1-c1c(Cl)ccc2c(CCCOc3cccc4cc(F)ccc34)c(C(=O)O)n(CCN3CCN(C(=O)COc4c(N(C)C)ccc5c4CN(C4CCC(=O)NC4=O)C5=O)CC3)c12 (stereo not shown) [Compound 10, 6-Chloro-1-(2-(4-(2-((5-(dimethylamino)-2-(2,6-dioxopiperidin-3-yl)-1-oxoisoindolin-4-yl)oxy)acetyl)piperazin-1-yl)ethyl)-3-(3-((6-fluoronaphthalen-1-yl)oxy)propyl)-7-(1,3,5-trimethyl-1H-pyrazol-4-yl)-1H-indole-2-carboxylic acid] | < 316 nM | > 10000 nM
4 | < 100 nM | Cc1nn(C)c(C)c1-c1c(Cl)ccc2c(CCCOc3cccc4cc(F)ccc34)c(C(=O)O)n(CCN3CCN(CC(=O)Nc4cccc5c4CN(C4CCC(=O)NC4=O)C5=O)CC3)c12 (stereo not shown) [Compound 29, 6-Chloro-1-{2-[4-({[2-(2,6-dioxopiperidin-3-yl)-1-oxo-2,3-dihydro-1H-isoindol-4-yl]carbamoyl}methyl)piperazin-1-yl]ethyl}-3-{3-[(6-fluoronaphthalen-1-yl)oxy]propyl}-7-(1,3,5-trimethyl-1H-pyrazol-4-yl)-1H-indole-2-carboxylic acid] |  | > 10000 nM
5 | < 316 nM | CNc1cc(OCC(=O)N2CCN(CCn3c(C(=O)O)c(CCCOc4cccc5cc(F)ccc45)c4ccc(Cl)c(-c5c(C)nn(C)c5C)c43)CC2)c2c(c1)C(=O)N(C1CCC(=O)NC1=O)C2 (stereo not shown) [Compound 12, 6-Chloro-1-(2-(4-(2-((2-(2,6-dioxopiperidin-3-yl)-6-(methylamino)-1-oxoisoindolin-4-yl)oxy)acetyl)piperazin-1-yl)ethyl)-3-(3-((6-fluoronaphthalen-1-yl)oxy)propyl)-7-(1,3,5-trimethyl-1H-pyrazol-4-yl)-1H-indole-2-carboxylic acid] | < 100 nM | > 31600 nM
6 | < 100 nM | Cc1nc2cc(C(=O)NCC(=O)N3CCN(CCn4c(C(=O)O)c(CCCOc5cccc6cc(F)ccc56)c5ccc(Cl)c(-c6c(C)nn(C)c6C)c54)CC3)ccc2cc1C1CCC(=O)NC1=O (stereo not shown) [Compound 6, 6-Chloro-1-(2-(4-((3-(2,6-dioxopiperidin-3-yl)-2-methylquinoline-7-carbonyl)glycyl)piperazin-1-yl)ethyl)-3-(3-((6-fluoronaphthalen-1-yl)oxy)propyl)-7-(1,3,5-trimethyl-1H-pyrazol-4-yl)-1H-indole-2-carboxylic acid] | < 100 nM | > 10000 nM
7 |  | CCc1c(OCC(=O)N2CCN(CCn3c(C(=O)O)c(CCCOc4cccc5cc(F)ccc45)c4ccc(Cl)c(-c5c(C)nn(C)c5C)c43)CC2)cccc1C(=O)NC1CCC(=O)NC1=O (stereo not shown) [Compound 24, 6-Chloro-1-{2-[4-(2-{3-[(2,6-dioxopiperidin-3-yl)carbamoyl]-2-ethylphenoxy}acetyl)piperazin-1-yl]ethyl}-3-{3-[(6-fluoronaphthalen-1-yl)oxy]propyl}-7-(1,3,5-trimethyl-1H-pyrazol-4-yl)-1H-indole-2-carboxylic acid] |  | > 10000 nM
8 |  | CCc1cc(OCC(=O)N2CCN(CCn3c(C(=O)O)c(CCCOc4cccc5cc(F)ccc45)c4ccc(Cl)c(-c5c(C)nn(C)c5C)c43)CC2)ccc1C(=O)NC1CCC(=O)NC1=O (stereo not shown) [Compound 25, 6-Chloro-1-(2-(4-(2-(4-((2,6-dioxopiperidin-3-yl)carbamoyl)-3-ethylphenoxy)acetyl)piperazin-1-yl)ethyl)-3-(3-((6-fluoronaphthalen-1-yl)oxy)propyl)-7-(1,3,5-trimethyl-1H-pyrazol-4-yl)-1H-indole-2-carboxylic acid] |  | > 3160 nM
9 | < 100 nM | Cc1nc2ccc(C(=O)NCC(=O)N3CCN(CCn4c(C(=O)O)c(CCCOc5cccc6cc(F)ccc56)c5ccc(Cl)c(-c6c(C)nn(C)c6C)c54)CC3)cc2cc1C1CCC(=O)NC1=O (stereo not shown) [Compound 5, 6-Chloro-1-{2-[4-(2-{[3-(2,6-dioxopiperidin-3-yl)-2-methylquinolin-6-yl]formamido}acetyl)piperazin-1-yl]ethyl}-3-{3-[(6-fluoronaphthalen-1-yl)oxy]propyl}-7-(1,3,5-trimethyl-1H-pyrazol-4-yl)-1H-indole-2-carboxylic acid] |  | > 10000 nM
10 | < 316 nM | Cc1nn(C)c(C)c1-c1c(Cl)ccc2c(CCCOc3cccc4cc(F)ccc34)c(C(=O)O)n(CCN3CCN(C(=O)COc4cc(N(C)C)cc5c4CN(C4CCC(=O)NC4=O)C5=O)CC3)c12 (stereo not shown) [Compound 13, 6-Chloro-1-{2-[4-(2-{[6-(dimethylamino)-2-(2,6-dioxopiperidin-3-yl)-1-oxo-2,3-dihydro-1H-isoindol-4-yl]oxy}acetyl)piperazin-1-yl]ethyl}-3-{3-[(6-fluoronaphthalen-1-yl)oxy]propyl}-7-(1,3,5-trimethyl-1H-pyrazol-4-yl)-1H-indole-2-carboxylic acid] |  | > 10000 nM
11 | < 100 nM | Cc1nn(C)c(C)c1-c1c(Cl)ccc2c(CCCOc3cccc4cc(F)ccc34)c(C(=O)O)n(CCN3CCN(CC(=O)NCc4ccc5c(c4)CN(C4CCC(=O)NC4=O)C5=O)CC3)c12 (stereo not shown) [Compound 26, 6-Chloro-1-(2-{4-[({[2-(2,6-dioxopiperidin-3-yl)-1-oxo-2,3-dihydro-1H-isoindol-5-yl]methyl}carbamoyl)methyl]piperazin-1-yl}ethyl)-3-{3-[(6-fluoronaphthalen-1-yl)oxy]propyl}-7-(1,3,5-trimethyl-1H-pyrazol-4-yl)-1H-indole-2-carboxylic acid] |  | > 31600 nM
12 | < 100 nM | Cc1cc(OCCCc2c(C(=O)O)n(CCN3CCN(CC(=O)NCc4ccc5c(c4)CN(C4CCC(=O)NC4=O)C5=O)CC3)c3c(-c4c(C)nn(C)c4C)c(Cl)ccc23)cc(C)c1Cl (stereo not shown) [Compound 27, 6-Chloro-3-[3-(4-chloro-3,5-dimethylphenoxy)propyl]-1-(2-{4-[({[2-(2,6-dioxopiperidin-3-yl)-1-oxo-2,3-dihydro-1H-isoindol-5-yl]methyl}carbamoyl)methyl]piperazin-1-yl}ethyl)-7-(1,3,5-trimethyl-1H-pyrazol-4-yl)-1H-indole-2-carboxylic acid] |  | 
13 | < 31.6 nM | Cc1nc2c(NCC(=O)N3CCN(CCn4c(C(=O)O)c(CCCOc5cccc6cc(F)ccc56)c5ccc(Cl)c(-c6c(C)nn(C)c6C)c54)CC3)cccc2cc1N1CCC(=O)NC1=O [Compound 146, 6-Chloro-1-(2-(4-((3-(2,4-dioxotetrahydropyrimidin-1(2H)-yl)-2-methylquinolin-8-yl)glycyl)piperazin-1-yl)ethyl)-3-(3-((6-fluoronaphthalen-1-yl)oxy)propyl)-7-(1,3,5-trimethyl-1H-pyrazol-4-yl)-1H-indole-2-carboxylic acid] | < 100 nM | 
